Data on three compounds can be found in patent US4229436A, “Antibiotic G-6302” (Takeda Chemical Industries, Ltd., priority 1977, dated 1980).

SMILES strings stand for the structures. ≈ marks a conversion by molar mass, not a printed value.

The nature of data set [1]: Stability in aqueous solution. The format is physicochemical.
Data set [2] concerns Candida albicans IFO 0583. Description: Antimicrobial spectrum, agar plate dilution method. The format is cell-based. Conditions: IFO0583, Nutrient agar containing 1% of glucose, read-out: Minimal inhibitory concentration. The source says:
(§1) The biological characteristics of G-6302 are as follows. The antimicrobial spectra of G-6302 and its sodium salt against various microorganisms are shown in Table 3 (agar plate dilution method.)
(§2) *Medium = Nutrient agar containing 1% of glucose

The subject of data set [3] is Aspergillus niger IFO 4066. Description: Antimicrobial spectrum, agar plate dilution method. It counts as cell-based. Conditions: IFO4066, Nutrient agar containing 1% of glucose, read-out: Minimal inhibitory concentration.
Excerpt: as §1, §2

For data set [4], the system named is Saccharomyces cerevisiae IFO 0209. Description: Antimicrobial spectrum, agar plate dilution method. The format is cell-based. The settings on record: IFO0209, Nutrient agar containing 1% of glucose, read-out: Minimal inhibitory concentration.
Excerpt: as §1, §2

Data set [5] has as its system Penicillium chrysogenum IFO 4626. The data set is described as follows: Antimicrobial spectrum, agar plate dilution method. It counts as cell-based. Conditions: IFO4626, Nutrient agar containing 1% of glucose, read-out: Minimal inhibitory concentration.
Excerpt: as §1, §2

Data set [6] deals with Escherichia coli NIHJ. Description: Antimicrobial spectrum, agar plate dilution method. The settings on record: Trypticasesoy-broth-agar, read-out: Minimal inhibitory concentration. It counts as cell-based.
Excerpt: as §1
(§3) Medium = Trypticasesoy-broth-agar

The subject of data set [7] is Corynebacterium diphtheriae Toronto. Description: Antimicrobial spectrum, agar plate dilution method. It counts as cell-based. Conditions: Trypticasesoy-broth-agar, read-out: Minimal inhibitory concentration.
Excerpt: as §1, §3

The test system of data set [8] is Escherichia coli T-7. The data set is described as follows: Antimicrobial spectrum, agar plate dilution method. It counts as cell-based. Conditions: T7, Trypticasesoy-broth-agar, read-out: Minimal inhibitory concentration.
Excerpt: as §1, §3

The test system of data set [9] is Proteus morganii IFO 3168. Description: Antimicrobial spectrum, agar plate dilution method. The format is cell-based. Conditions: Morganella morganii, IFO3168, Trypticasesoy-broth-agar, read-out: Minimal inhibitory concentration.
Excerpt: as §1, §3

Data set [10] relates to Shigella flexneri EW-10. Description: Antimicrobial spectrum, agar plate dilution method. It counts as cell-based. The settings on record: EW10, Trypticasesoy-broth-agar, read-out: Minimal inhibitory concentration.
Excerpt: as §1, §3

Data set [11] concerns Proteus mirabilis IFO 3849. The data set is described as follows: Antimicrobial spectrum, agar plate dilution method. The settings on record: IFO3849, Trypticasesoy-broth-agar, read-out: Minimal inhibitory concentration. The format is cell-based.
Excerpt: as §1, §3

In data set [12] the test system is Pseudomonas aeruginosa U-31. Description: Antimicrobial spectrum, agar plate dilution method. It counts as cell-based. The settings on record: U31, Trypticasesoy-broth-agar, read-out: Minimal inhibitory concentration.
Excerpt: as §1, §3

The test system of data set [13] is Proteus vulgaris IFO 3988. Description: Antimicrobial spectrum, agar plate dilution method. The format is cell-based. Conditions: IFO3988, Trypticasesoy-broth-agar, read-out: Minimal inhibitory concentration.
Excerpt: as §1, §3

For data set [14], the system named is Staphylococcus aureus FDA 209P. The data set is described as follows: Antimicrobial spectrum, agar plate dilution method. The settings on record: FDA209P, Trypticasesoy-broth-agar, read-out: Minimal inhibitory concentration. It counts as cell-based.
Excerpt: as §1, §3

For data set [15], the system named is Bacillus subtilis PCI 219. The data set is described as follows: Antimicrobial spectrum, agar plate dilution method. It counts as cell-based. Conditions: PCI219, Trypticasesoy-broth-agar, read-out: Minimal inhibitory concentration.
Excerpt: as §1, §3

In data set [16] the test system is Serratia marcescens IFO 12648. Description: Antimicrobial spectrum, agar plate dilution method. It counts as cell-based. The settings on record: IFO12648, Trypticasesoy-broth-agar, read-out: Minimal inhibitory concentration.
Excerpt: as §1, §3

Data set [17] has as its system Klebsiella pneumoniae DT. The data set is described as follows: Antimicrobial spectrum, agar plate dilution method. It counts as cell-based. Conditions: Trypticasesoy-broth-agar, read-out: Minimal inhibitory concentration.
Excerpt: as §1, §3

For data set [18], the system named is Streptococcus pyogenes E-14. The data set is described as follows: Antimicrobial spectrum, agar plate dilution method. It counts as cell-based. Conditions: E14, Trypticasesoy-broth-agar, read-out: Minimal inhibitory concentration.
Excerpt: as §1, §3

Data set [19] deals with Klebsiella pneumoniae. The data set is described as follows: Protection of mice infected with Klebsiella pneumoniae. The format is in vivo.
Data set [20] concerns Escherichia coli. The data set is described as follows: Protection of mice infected with Escherichia coli. It counts as in vivo.
The subject of data set [21] is gram-positive bacteria. Description: Antimicrobial spectrum, summary in words. It counts as cell-based. The settings on record: summary of Table 3.
Excerpt: as §1

Data set [22] deals with gram-negative bacteria. The data set is described as follows: Antimicrobial spectrum, summary in words. It counts as cell-based. The settings on record: summary of Table 3.
Excerpt: as §1

Data set [23] in a line: Solubility in solvents. The format is physicochemical.
A short description of data set [24]: Basicity, neutrality or acidity. The format is physicochemical.
Data set [25] in a line: Acute toxicity in mice, intravenous.
Data set [26] concerns Salmonella typhosa Boxhill 58. Description: Antimicrobial spectrum, agar plate dilution method. The format is cell-based. Conditions: Salmonella enterica, read-out: Minimal inhibitory concentration.
Excerpt: as §1, §3

The conditions of data set [27]: mouse, in vivo.
The mark [28] stands for this setting: listed as sodium salt of G-6302.

Turning to `COC1(NC(=O)C(C)NC(=O)CCC(N)C(=O)O)CN(S(=O)(=O)O)C1=O` (stereo not drawn) [Antibiotic G-6302], in data set [1] (over pH 8.5), the “Stability over pH 8.5” value is “unstable”. Also, the “Stability in aqueous solution” value in [1] (pH 3-pH 7, 60° C., 10 minutes) is listed as “Stable”. In addition, the MIC in data set [2] is > 100 µg/mL; in data set [3], > 100 µg/mL; in [4], > 100 µg/mL; in data set [5], > 100 µg/mL; in data set [6], 25 µg/mL (≈ 63.1 µM); in data set [7], 12.5 µg/mL (≈ 31.5 µM). In addition, the MIC in [8] is 25 µg/mL (≈ 63.1 µM); in data set [9], 100 µg/mL (≈ 252 µM); in [10], 25 µg/mL (≈ 63.1 µM); in data set [11] it was 25 µg/mL (≈ 63.1 µM); in [12], > 100 µg/mL; in [13], 100 µg/mL (≈ 252 µM). Further, the MIC in [14] is > 100 µg/mL; in [15], 100 µg/mL (≈ 252 µM); in data set [16], 100 µg/mL (≈ 252 µM); in data set [17] it was 12.5 µg/mL (≈ 31.5 µM); in data set [18], > 100 µg/mL. Besides, the “protecting action on infected mice” value in [19] (oral dose of 100 mg/kg), in [19] (subcutaneous dose of 10 mg/kg), in data set [20] (oral dose of 100 mg/kg) and in [20] (subcutaneous dose of 10 mg/kg) was “protecting action” throughout. Further, the “antimicrobial activity against gram-positive bacteria” value in [21] is reported as “inhibitory”; in data set [21] (listed as Antibiotic G-6302) it was “also active against some gram-positive bacteria”. Also, the results for the “antimicrobial activity against gram-negative bacteria” value in [22] and in data set [22] (listed as Antibiotic G-6302) were “inhibitory” and “mainly active against gram-negative bacteria”, respectively. Further, in data set [23], the Solubility in acetone entry was “sparingly soluble”. Moreover, the Solubility in benzene result in data set [23] (benzene) is listed as “Insoluble”. For the same compound, in data set [23] (chloroform), the Solubility in chloroform entry is “Insoluble”. Further, the “Solubility in diethyl ether” value in [23] (diethyl ether) was “Insoluble”. In addition, the Solubility in dimethylsulfoxide entry in [23] (dimethylsulfoxide) was “soluble”. Also, in data set [23] (ethanol), the Solubility in ethanol result is recorded as “sparingly soluble”. Moreover, in [23] (ethyl acetate), the “Solubility in ethyl acetate” value was “Insoluble”. Besides, the Solubility in hexane result in data set [23] (hexane) is recorded as “Insoluble”. Further, the Solubility in methanol entry in data set [23] is “soluble”. Moreover, in [23] (petroleum ether), the “Solubility in petroleum ether” value is “Insoluble”. Also, the Solubility in pyridine entry in data set [23] (pyridine) is on record as “sparingly soluble”. In addition, in data set [23] (water), the Solubility in water result is recorded as “readily soluble”. Also, in data set [24], the “Basicity, neutrality or acidity” value was “Acid”.

On to `COC1(NC(=O)C(C)NC(=O)CCC(N)C(=O)O)CN(S(=O)(=O)O)C1=O` (stereo not drawn) [G-6302 . Na], for which the acute toxicity entry in data set [25] was “low”. Further, the MIC in data set [26] was 12.5 µg/mL (≈ 31.5 µM). For the same compound, in data set [23] (setting [28]), the Solubility in acetone result was “Insoluble” and the Solubility in methanol entry is “sparingly soluble”. Besides, the deaths entry in data set [27] was “no deaths”.

With `COC1(NC(=O)C(C)NC(=O)CCC(N)C(=O)O)CN(S(=O)(=O)O)C1=O` (stereo not drawn) [crystals of G-6302], the “stability (compared with product of Example 1)” value in data set [1] (crystals of Example 5) is “the same as those of the product obtained in Example 1”. The “solubility in solvents (compared with product of Example 1)” value in data set [23] (crystals of Example 5) is on record as “the same as those of the product obtained in Example 1”. For the same compound, the “basicity, neutrality or acidity (compared with product of Example 1)” value in data set [24] (crystals of Example 5) is reported as “the same as those of the product obtained in Example 1”.
